According to patent US20060241166A1, “Sapphyrins and uses thereof” (Pharmacyclica, Inc., priority 2003, published 2006):
Where “and” joins values, the source holds several entries; their conditions need not be identical. Equal values may be shown once.

Assays:
[1] = system: cells; test: Annexin binding apoptosis assay, cells treated with sapphyrins for 24 hrs; assay type: cell-based; design: key: Back = background; Sat = saturated assay conditions: killing greater 95%
Experimental: (§1) All cell lines were grown in RPMI 1640 with 10% fetal bovine serum. Cells were treated at a density of 100,000 cells/ml with sapphyrins for 24 hrs and then assessed for apoptosis. Some cells were cultured for up to 96 hrs and then assessed for growth inhibition by counting cells using a coulter counter. For the xenograft model, 10 million Ramos cells were injected subcutaneously into the right hind flank of CD-1 nude mice that had been irradiated with 3 Gy 24 hrs prior to tumor implantation. Seven days later, the mice were treated with sapphyrin given intravenously in the tail vein q day×2 doses. Some animals were sacrificed the next day for analysis of drug uptake in tumor and spleen, tumor cell killing and tumor cell culture.
Annexin binding and propidium iodide exclusion were assayed using reagents from Biosource (Camarillo, Calif.) per manufacturer's protocol.

[2] = system: cells; test: Growth inhibition by cell counting 96 hrs post treatment; assay type: cell-based; details: 0.5 uM sapphyrin
Experimental: as §1

[3] = Animal toxicology; details: for Animal toxicology: dose at which deaths were seen: in vivo; for Animal toxicology: highest doses that showed no deaths: numbers in parentheses
[4] = system: Lymphoma, Leukemia and Myeloma cell lines; test: Cell death in Lymphoma, Leukemia and Myeloma cell lines (FIG. 11); assay type: cell-based; details: 1 μM
Experimental: (§2) Cytotoxicity was evaluated using Annexin-V staining and caspase activation as markers of apoptosis. Cell lines were grown in RPMI 1640 with 10% heat inactivated fetal bovine serum. Example 12 was added to cell cultures in concentrations ranging from 100 nM-5 μM.

[5] = system: Ramos cells; test: Cell death in Ramos cell line (FIG. 13-15); assay type: cell-based
Experimental: as §1, §2

| Structure (SMILES) | % Annexin positive cells after 24 hrs (sapphyrin dose) ([1]; 1 uM sapphyrin, listed as Ex. 1) | % Annexin positive cells after 24 hrs (sapphyrin dose) ([1]; 2.5 uM sapphyrin, listed as Ex. 1) | % Annexin positive cells after 24 hrs (sapphyrin dose) ([1]; 5 uM sapphyrin) | % Annexin positive cells after 24 hrs (sapphyrin dose) ([1]; 0.5 Um sapphyrin) | After 96 hr (GI = growth inhibition 96 hrs post treatment compared to control untreated cells) ([2]; listed as Ex. 1) | Animal toxicology: animals dead ([3]; at 26.8 uM/kg) | Animal toxicology: dose at which deaths were seen [3] [uM/kg] | Animal toxicology: highest doses that showed no deaths [3] [uM/kg] | % Annexin positive cells after 24 hrs (sapphyrin dose) ([1]; 1 uM sapphyrin) [%] | % Annexin positive cells after 24 hrs (sapphyrin dose) ([1]; 2.5 uM sapphyrin) | After 96 hr (GI = growth inhibition 96 hrs post treatment compared to control untreated cells) [2] | Animal toxicology: animals dead ([3]; at 40 uM/kg) | Increase in cell death [4] | Dose response of cell death ([5]; Ramos cell line, 8 hours, FIG. 14) | Dose response of cell death ([5]; Ramos cell lines, 48 hours incubation, FIG. 13) |
| --- | --- | --- | --- | --- | --- | --- | --- | --- | --- | --- | --- | --- | --- | --- | --- |
| CCc1c(CC)c2cc3nc(cc4[nH]c(c(CC)c4CC)c4[nH]c(cc5nc(cc1[nH]2)C(CCCOC(=O)N(CCO)CCO)=C5C)c(CC)c4CC)C(C)=C3CCCOC(=O)N(CCO)CCO [Example 1] | 38% and 30% | 99% and 96% | sat | Back | 91% and 52% | 1/9 dead at | 26.8 | 22.3 | – | – | – | – | – | – | – |
| CCc1c(CC)c2cc3nc(cc4[nH]c(c(CC)c4CC)c4[nH]c(cc5nc(cc1[nH]2)C(CCCOC(=O)NC(CO)(CO)CO)=C5C)c(CC)c4CC)C(C)=C3CCCOC(=O)NC(CO)(CO)CO [Example 2] | – | – | 97% | Back | – | – | 40 | 30 | 10 | 41% | 13% | 4/6 dead | – | – | – |
| CCc1c(CC)c2cc3nc(cc4[nH]c(c(CC)c4CC)c4[nH]c(cc5nc(cc1[nH]2)C(CCCOC(=O)NCCOCCOCCOC)=C5C)c(CC)c4CC)C(C)=C3CCCOC(=O)NCCOCCOCCOC [Example 3] | – | – | sat | 10.6% | – | – | – | – | 93 | sat | – | – | – | – | – |
| CCc1c(CC)c2cc3nc(cc4[nH]c(c(CC)c4CC)c4[nH]c(cc5nc(cc1[nH]2)C(CCCO)=C5C)c(CC)c4CC)C(C)=C3CCCO [Example 12] | – | – | – | – | – | – | – | – | – | – | – | – | at least a five-fold increase in cell death | An increase in the amount of Example 12 causes an increase in cell death | An increase in the amount of Example 12 causes an increase in cell death |
| O=C1NC(=O)c2ccccc21 [Phthalimide] | – | – | sat | back | – | – | – | – | 16 | – | GI-50% | – | – | – | – |
